Assay results published in patent publication US20260250318A1, “COMPOSITIONS AND METHODS FOR CROSSING THE BLOOD BRAIN BARRIER” (VOYAGER THERAPEUTICS, INC., priority 2022, published 2026).

What was measured:
[1] = system: brains, heart, liver, muscle, and DRG of the NHPs; test: Maturation of TTM-001 and TTM-002 capsids, NGS enrichment in NHP tissues; type: in vivo; conditions: relative to AAV9 control
Summary of the method: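 Variants carry mutations within and flanking the loop IV peptide insert: positions 450–466 were triplet-randomized, while positions 449–466 received low-frequency point mutations. The combined pool went into two NHPs, and each peptide was scored by NGS enrichment ratio against AAV9.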

[2] = system: brain; test: Matured TTM-001 and TTM-002 variants, NGS enrichment in mouse brain; type: in vivo, mice; conditions: relative to AAV9 control
[3] = NGS fold-enrichment of matured AAV capsid variants, NHP brain, RNA
[4] = NGS fold-enrichment, DRG of NHPs
[5] = NGS fold-enrichment, RNA, brain of NHPs
[6] = NGS fold-enrichment, heart of NHPs
[7] = NGS fold-enrichment, liver DNA of NHPs
[8] = NGS fold-enrichment, liver RNA of NHPs
[9] = NGS fold-enrichment, muscle of NHPs
[10] = NGS fold-enrichment, brain of mice
[11] = NGS fold-enrichment of RNA, NHP brain
[12] = NGS fold-enrichment, NHP liver DNA
[13] = NGS fold-enrichment, NHP liver RNA
[14] = NGS fold-enrichment, NHP muscle
[15] = NGS fold-enrichment, mouse brain

| Sequence | Fold Enrichment relative to AAV9, Brain (NHP) [1, 3] [fold] | Fold Enrichment relative to AAV9, DRG (NHP) ([1]; NHP DRG) [fold] | Fold Enrichment relative to AAV9, Heart (NHP) ([1]; NHP heart) [fold] | Fold Enrichment relative to AAV9, Liver DNA (NHP) ([1]; NHP liver, DNA) [fold] | Fold Enrichment relative to AAV9, Liver RNA (NHP) ([1]; NHP liver, RNA) [fold] | Fold Enrichment relative to AAV9, Muscle (NHP) ([1]; NHP muscle) [fold] | Fold Enrichment relative to AAV9, Brain (Mouse) ([2]; mouse brain) [fold] | Fold Enrichment relative to AAV9, DRG (NHP) [1, 4] [fold] | Fold Enrichment relative to AAV9, Brain (NHP) [1, 5] [fold] | Fold Enrichment relative to AAV9, Heart (NHP) [1, 6] [fold] | Fold Enrichment relative to AAV9, Liver DNA (NHP) [1, 7] [fold] | Fold Enrichment relative to AAV9, Liver RNA (NHP) [1, 8] [fold] | Fold Enrichment relative to AAV9, Muscle (NHP) [1, 9] [fold] | Fold Enrichment relative to AAV9, Brain (Mouse) [2, 10] [fold] | other results |
| --- | --- | --- | --- | --- | --- | --- | --- | --- | --- | --- | --- | --- | --- | --- | --- |
| KTINGSGSPHSKAQPLGT | 53.049 | 0.015 | 0.004 | 0.222 | 0.515 | 0.001 | 68.656 | – | – | – | – | – | – | – | – |
| KTVKDSGSPHSKAQNQQT | – | – | – | – | – | – | – | 0.000 | 60.216 | 0.019 | 0.251 | 0.443 | 0.000 | 87.334 | – |
| KTVNGSGSPHSKAQNHLT | – | – | – | – | – | – | – | 0.133 | 59.239 | 0.034 | 0.156 | 0.000 | 0.000 | 70.786 | – |
| KTIDGSGSPHSKSQNHQT | 51.307 | 0.000 | 0.000 | 0.269 | 0.000 | 0.000 | 63.174 | – | – | – | – | – | – | – | – |
| KTINGGGSPHSKAQYQHT | 54.188 | 0.000 | 0.000 | 0.223 | 0.000 | 0.000 | 82.256 | – | – | – | – | – | – | – | – |
| KTINVSGSPHSKAQGQQT | 55.870 | 0.000 | 0.191 | 0.040 | 0.592 | 0.000 | 87.211 | – | – | – | – | – | – | – | – |
| KSINGSGSPHSKAQAQQT | – | – | – | – | – | – | – | 0.000 | 66.464 | 0.711 | 0.111 | 0.148 | 0.000 | 78.451 | – |
| KTENVSGSPHSKAQNQQT | – | – | – | – | – | – | – | 0.000 | 88.506 | 0.000 | 0.112 | 0.964 | 0.000 | 108.591 | Fold Enrichment relative to AAV9, Brain (NHP) [1, 11]: 88.506 fold; Fold Enrichment relative to AAV9, DRG (NHP) ([1]; NGS fold-enrichment, NHP DRG): 0.000 fold; Fold Enrichment relative to AAV9, Heart (NHP) ([1]; NGS fold-enrichment, NHP heart): 0.000 fold; Fold Enrichment relative to AAV9, Liver DNA (NHP) [1, 12]: 0.112 fold; Fold Enrichment relative to AAV9, Liver RNA (NHP) [1, 13]: 0.964 fold; Fold Enrichment relative to AAV9, Muscle (NHP) [1, 14]: 0.000 fold; Fold Enrichment relative to AAV9, Brain (Mouse) [2, 15]: 108.591 fold |
| KTINGSGSPHSKARDWQT | 58.216 | 0.000 | 0.005 | 0.259 | 0.800 | 0.000 | 120.704 | – | – | – | – | – | – | – | – |
| KTINGSGSPHSKAQAKGT | 51.727 | 0.048 | 0.016 | 0.525 | 0.271 | 0.000 | 104.917 | – | – | – | – | – | – | – | – |
| KTEGISGSPHSKAQNQQT | 53.270 | 0.000 | 0.000 | 0.010 | 0.000 | 0.000 | 78.303 | – | – | – | – | – | – | – | – |
| KTFNASGSPHSKAPNQQT | – | – | – | – | – | – | – | 0.208 | 65.392 | 0.000 | 0.156 | 0.215 | 0.000 | 66.275 | – |
| KSIKGNGSPHSKAQNQQT | – | – | – | – | – | – | – | 0.000 | 75.196 | 0.000 | 0.000 | 0.000 | 0.000 | 90.251 | Fold Enrichment relative to AAV9, Brain (NHP) [1, 11]: 75.196 fold; Fold Enrichment relative to AAV9, DRG (NHP) ([1]; NGS fold-enrichment, NHP DRG): 0.000 fold; Fold Enrichment relative to AAV9, Heart (NHP) ([1]; NGS fold-enrichment, NHP heart): 0.000 fold; Fold Enrichment relative to AAV9, Liver DNA (NHP) [1, 12]: 0.000 fold; Fold Enrichment relative to AAV9, Liver RNA (NHP) [1, 13]: 0.000 fold; Fold Enrichment relative to AAV9, Muscle (NHP) [1, 14]: 0.000 fold; Fold Enrichment relative to AAV9, Brain (Mouse) [2, 15]: 90.251 fold |
| KNINGSGSPHSKAQSQQT | – | – | – | – | – | – | – | 0.000 | 73.757 | 0.000 | 0.041 | 0.000 | 0.000 | 57.432 | – |
| KTINGSGSPHSKALMRQT | 57.234 | 0.060 | 0.036 | 0.517 | 1.798 | 0.100 | 81.332 | – | – | – | – | – | – | – | – |
| KTFKGSGSPHSKAPNQQT | – | – | – | – | – | – | – | 0.000 | 80.890 | 0.000 | 0.017 | 0.000 | 0.000 | 71.144 | Fold Enrichment relative to AAV9, Brain (NHP) [1, 11]: 80.890 fold; Fold Enrichment relative to AAV9, DRG (NHP) ([1]; NGS fold-enrichment, NHP DRG): 0.000 fold; Fold Enrichment relative to AAV9, Heart (NHP) ([1]; NGS fold-enrichment, NHP heart): 0.000 fold; Fold Enrichment relative to AAV9, Liver DNA (NHP) [1, 12]: 0.017 fold; Fold Enrichment relative to AAV9, Liver RNA (NHP) [1, 13]: 0.000 fold; Fold Enrichment relative to AAV9, Muscle (NHP) [1, 14]: 0.000 fold; Fold Enrichment relative to AAV9, Brain (Mouse) [2, 15]: 71.144 fold |
